Reference: US20030220521A1, “Renal-selective prodrugs for control of renal sympathetic nerve activity in the treatment of hypertension” (G.D. Searle & Co., priority 1989, published 2003)

Key:
rats, heart and kidneys = experiment: Assay X: catecholamine analysis of heart and kidney tissue after 5 days of infusion; type: in vivo, rat
Experimental: Following 5 days of infusion, the kidney was exposed through a small flank incision, made in the anesthetized rat, and the renal artery and vein were ligated. Following this the kidney was rapidly excised distal to the ligation and frozen in liquid nitrogen. Similarly, the heart was excised and frozen subsequent to the removal of both kidneys. The frozen tissues were stored in closed containers at −80° C. Tissue samples were thawed on ice and their weight recorded prior to being placed in a flat bottom tube. The cold extraction solvent (2 ml/g tissue) was then added and the sample was homogenized with a Polytron. Extraction Solvent: 0.1 M perchloric acid (3 ml of 70% PCA to 500 ml); 0.4 mM Na metabisulphite (38 mg/500 ml). The volume was then measured and 0.05 ml of a 1 uM/L solution of dihydroxybenzylamine (DHBA) in extraction solvent was added for every 0.95 ml of homogenate to yield a 50 nM/L internal standard concentration. The homogenate was then mixed and centrifuged at 4° C., 3000 rpm for 35 minutes. A 2 ml aliquot of the supernatant was then neutralized by adding 0.5 ml of 2 M Tris, pH 8.8 and mixing. The sample was then placed on an alumina column (40 mg, Spe-ed CAT cartridge; Applied Separations; Bethlehem, Pa.) and the catecholamines were bound, washed and eluted using a vacuum manifold system (Adsorbex SPU, EM Science, Cherry Hill, N.J.) operating at ca. 4 ml/min. until the column was dry. Washes of 1 ml H20—0.5 ml MeOH—1 ml H20 were followed by elution with 1 ml of extraction solvent. A 200 μl sample of the eluant was injected onto a C-18 reversed phase analytical HPLC column, 5 um, 4.6 mm×250 mm (e.g., Beckman #235335, LKB 2134-630 Spherisorb ODS-2) and eluted with a recycled mobile phase run at ambient temperature and a flow rate of 0.5 ml/min (ca. 75 bar). Mobile Phase: 0.02 M Na2HP04 in 75/25(v/v) H20/MeOH 0.007% SDS pH 3.5 (conc. H3P04). The separated catecholamines were detected with a LKB 2143 electrochemical detector at a potential setting of 500 mV using a teflon flow cell spacer of 2.2 μl and a time constant of 2 sec. Peak heights were measured and recorded along with the chromatogram tracing using a Spectra-Physics 4270 integrator. […] The resulting factor (calculated for each sample) was used to correct for losses due to dilution, non-specific binding to the tissue precipitate, incomplete elution, etc. Concentrations were calculated by multiplying the peak heights for Epi, NE and DA by that samples correction factor and then dividing this value by the peak height of the respective standard. […] This value is multiplied by the volume of the homogenate (determined previously) to get the total catecholamine content of the tissue expressed in moles/g tissue. […]

[1] = test system: spontaneously hypertensive rats; experiment: Assay VI: acute in vivo effects on mean arterial pressure and renal blood flow in anesthetized SHR (i.v. or i.d.); design: species or system rat; conditions: for MAP / RBF / acute effect on mean arterial pressure / acute effect on renal blood flow: 50 mg/kg i.v.
Experimental: Spontaneously hypertensive rats were anesthetized with inactin (100 mg/kg, i.p.) and catheters were implanted into a carotid artery for measurement of mean arterial pressure (Gould model 3800 chart recorder; Statham pressure transducer model no. P23DB) and into a jugular vein for compound administrations (i.v. or i.d.). In addition, a flow probe was implanted around the left renal artery for measurement of renal blood flow using pulsed Doppler flowmetry. Rats were allowed 60 min to stabilize before 10 minutes of control recordings of mean arterial pressure and renal blood flow were obtained. Control measurements were followed by intravenous injection of 50 mg/kg of fusaric acid or the Ex. #859 conjugate. […] The Ex. #859 conjugate had no effect on mean arterial pressure at a dose of 100 mg/kg (n=4) during a 60 minute observation period. Renal blood flow (n=4) was unchanged 15 minutes after injection of the Ex. #859 conjugate but increased from 1.1 KHz (control period) to 3.5 KHz at 30 minutes postinjection.

[2] = test system: Spontaneously Hypertensive Rats (SHR); experiment: Assay VII: acute effects on arterial pressure in anesthetized SHR; type: in vivo, rat; conditions: for Mean arterial pressure: i.v.: fusaric acid and fusaric acid hydrazide 100 mg/kg, Ex. #859 250 mg/kg
Experimental: Mean arterial pressure effects of fusaric acid hydrazide (100 mg/kg, i.v.), fusaric acid (100 mg/kg, i.v.) and Ex. #859 conjugate (250 mg/kg, i.v.) are shown in Table XXVII during a vehicle control period and 60 min post-injection of compound in anesthetized SHR. Rats were prepared as described above, minus the renal artery flow probe.

[3] = anesthetized SHR, 60 minute observation

| SMILES | heart norepinephrine concentration relative to vehicle (rats, heart and kidneys) | kidney norepinephrine concentration relative to vehicle (rats, heart and kidneys) | MAP ([1]; 15 min) | RBF ([1]; 15 min) | MAP ([1]; 30 min) | RBF ([1]; 30 min) | MAP ([1]; 45 min) | RBF ([1]; 45 min) | MAP ([1]; 60 min) | RBF ([1]; 60 min) | MAP ([1]; time zero (control)) | RBF ([1]; time zero (control)) | acute effect on mean arterial pressure [1, 3] | acute effect on renal blood flow [1, 3] | Mean arterial pressure ([2]; 60 MIN post-injection) | Mean arterial pressure ([2]; ZERO (vehicle control period)) | other results |
| --- | --- | --- | --- | --- | --- | --- | --- | --- | --- | --- | --- | --- | --- | --- | --- | --- | --- |
| CCCCc1ccc(C(=O)NNC(=O)CCC(NC(C)=O)C(=O)O)nc1 [Ex. #859, N-acetyl-L-glutamic acid, 5-[(5-butyl-2-pyridinyl)-carbonyl]hydrazide] | only fusaric acid decreased heart norepinephrine concentration | decreased kidney norepinephrine concentration | 163 mm Hg | 3.8 KHz | 164 mm Hg | 4.0 KHz | 157 mm Hg | 4.6 KHz | 159 mm Hg | 4.8 KHz | 156 mm Hg | 2.4 KHz | no acute effects | increased renal blood flow to a greater degree than fusaric acid | 146 ± 15 mmHg | 151 ± 9 mmHg | Renal blood flow change ([1]; anesthetized SHR, i.d. 100 mg/kg, 15 minutes after injection): unchanged; Renal Blood Flow ([1]; anesthetized SHR, i.d. 100 mg/kg, 30 minutes postinjection): 3.5 KHz; effect on mean arterial pressure ([1]; anesthetized SHR, i.d. 100 mg/kg, 60 minute observation): no effect; Renal Blood Flow ([1]; anesthetized SHR, i.d. 100 mg/kg, control period): 1.1 KHz; Renal blood flow course ([1]; anesthetized SHR, i.d. 100 mg/kg, following 30 minute observation period (30-60 min)): remained at this level; hypotensive effect / effect on mean arterial pressure ([2]; i.v., 60 min post-injection): no effect |
| CCCCc1ccc(C(=O)O)nc1 [Fusaric Acid, 5-n-butylpicolinic acid] | decreased heart norepinephrine concentration | decreased kidney norepinephrine concentration | 111 mm Hg | 3.1 KHz | 106 mm Hg | 3.2 KHz | 103 mm Hg | 3.4 KHz | 99 mm Hg | 3.9 KHz | 155 mm Hg | 2.5 KHz | decreased mean arterial pressure | increased renal blood flow | 110 ± 21 mmHg | 164 ± 10 mmHg |  |
